Source: US9145424B2, “Treatment of amyotrophic lateral sclerosis” (Northwestern University, priority 2008, dated 2015)
pEC50: −log10 of the molar value. Where two headings read alike, the source gives them in different places.

Test system: PC12 cells that express mutant G93A SOD1
Test: Mutant SOD1-induced cytotoxicity protection assay
Settings: for Corresponding % viability: rat, 48 h
Protocol: This idea was tested by examining the sensitivity of PC12 cells to SOD1 aggregates in the presence and absence of proteasome inhibitor MG132. PC12 cells expressing no SOD1, wild type SOD1, G85R SOD1 or G93A SOD1 were grown with or without MG132 (FIG. 1).
PC12 cells expressing G93A SOD1 were treated with 100 nM MG132 with or without co-treatment with geldanamycin or radicicol.

[1] = Rattus norvegicus, PC-12, read-out: Best EC50, PC12 G93A SOD1 cells, MG132, calcein-AM viability
[2] = Rattus norvegicus, PC-12, read-out: EC50 after Normalization, normalised with the corresponding 3299 EC50
[3] = read-out: Best EC50, PC12 G93A SOD1 cells, MG132, calcein-AM viability
[4] = read-out: EC50 after Normalization, normalised with the corresponding 3299 EC50

| SMILES | pEC50 [1] | Corresponding % viability [%] | pEC50 [2] | pEC50 [3] | pEC50 [4] | activity in the cytotoxicity protection assay, in words |
| --- | --- | --- | --- | --- | --- | --- |
| O=c1cc(CSc2ccccc2)[nH][nH]1 [CMB-053526-1] | 5.16 | 77 |  |  |  |  |
| CC(C)(C)c1ccc(SCc2cc(=O)[nH][nH]2)cc1 [CMB-053527-1] | 5.27 | 150 | 5.64 |  |  |  |
| O=c1cc(CSc2ccc([N+](=O)[O-])cc2)[nH][nH]1 [CMB-053528-1] | 5.25 | 136 | 5.62 |  |  |  |
| O=c1cc(CSc2ccc(Cl)cc2)[nH][nH]1 [CMB-053529-1] |  | 93 | 5.71 | 5.35 |  |  |
| O=C1NN=C(CSc2ccccc2)C1=Cc1ccccc1 [CMB-053530-1] | < 4.49 |  |  |  |  |  |
| O=c1cc(CSc2ccc(Br)cc2)[nH][nH]1 [CMB-053543-1] | 5.37 | 94 | 5.74 |  |  |  |
| O=c1cc(CSc2ccc(Cl)c(Cl)c2)[nH][nH]1 [CMB-053544-1] | 5.59 | 113 | 5.72 |  |  |  |
| O=c1cc(CSc2ccc(Cl)cc2Cl)[nH][nH]1 [CMB-053545-1] | 5.80 | 124 | 5.94 |  |  |  |
| O=c1cc(CSc2ccc(Cl)cc2)[nH]n1-c1ccccc1 [CMB-086473-1] | 5.29 | 109 | 5.46 |  |  |  |
| O=c1cc(C[S+]([O-])c2ccc(Cl)cc2)[nH]n1-c1ccccc1 (centres unmarked) [CMB-086474-1] | < 4.49 |  |  |  |  |  |
| O=c1cc(CS(=O)(=O)c2ccc(Cl)cc2)[nH][nH]1 [CMB-086475-1] | 5.16 | 110 | 5.33 |  |  |  |
| CN(C)c1ccc(SCc2cc(=O)[nH][nH]2)cc1 [CMB-086476-1] | 5.78 | 77 |  |  |  |  |
| COc1ccc(SCc2cc(=O)[nH][nH]2)cc1 [CMB-086477-1] | 5.38 | 102 | 5.74 |  |  |  |
| O=c1cc(CSc2ccc(F)cc2)[nH][nH]1 [CMB-086478-1] | 5.33 | 104 | 5.46 |  |  |  |
| Cc1ccc(C)c(SCc2cc(=O)[nH][nH]2)c1 [CMB-086479-1] | 6.66 | 77 |  |  |  |  |
| O=c1cc(CSc2c(Cl)cccc2Cl)[nH][nH]1 [CMB-086480-1] | 6.59 | 142 | 6.02 |  |  |  |
| Cc1cc(SCc2cc(=O)[nH][nH]2)c(C)cc1Cl [CMB-086481-1] |  | 140 | 6.41 | 6.37 |  |  |
| Cc1cc([S+]([O-])Cc2cc(=O)[nH][nH]2)c(C)cc1Cl (centres unmarked) [CMB-086482-1] | 5.35 | 123 | 5.54 |  |  |  |
| O=c1cc(CSc2ccc(F)cc2Cl)[nH][nH]1 [CMB-086832-1] | 5.79 | 68 |  |  |  |  |
| O=c1cc(CSc2cccc(Cl)c2)[nH][nH]1 [CMB-086833-1] | 6.60 | 148 | 5.95 |  |  |  |

| SMILES | pEC50 [1] | Corresponding % viability [%] | pEC50 [2] | pEC50 [3] | pEC50 [4] | activity in the cytotoxicity protection assay, in words |
| --- | --- | --- | --- | --- | --- | --- |
| O=c1cc(CSc2ccccc2Cl)[nH][nH]1 [CMB-086834-1] | 6.08 | 123 | 5.52 |  |  |  |
| O=c1cc(CSc2cc(Cl)cc(Cl)c2)[nH][nH]1 [CMB-086835-1] |  | 134 | 6.77 | 7.10 |  |  |
| O=c1cc(CSc2cc(Cl)cc(Cl)c2)[nH][nH]1 [CMB-086835-2] |  | 129 |  | 6.52 | 6.54 |  |
| O=c1cc(CSc2ccc(Cl)cc2)[nH][nH]1 [CMB-086836-1] | 5.38 | 75 |  |  |  |  |
| O=c1cc(CSc2ccc(-c3ccccc3)cc2)[nH][nH]1 [CMB-086883-1] | 5.03 | 115 | 5.39 |  |  |  |
| CC(C)c1ccccc1SCc1cc(=O)[nH][nH]1 [CMB-086899-1] | 6.40 | 106 | 6.32 |  |  |  |
| O=c1cc(CSCCOc2ccccc2)[nH][nH]1 [CMB-086900-1] | 5.21 | 97 | 5.12 |  |  |  |
| CCc1ccccc1SCc1cc(=O)[nH][nH]1 [CMB-086901-1] | 5.69 | 106 | 5.60 |  |  |  |
| O=c1cc(COc2ccc(Cl)cc2)[nH][nH]1 [CMB-086902-1] |  | 131 | 6.19 | 6.24 |  |  |
| O=c1cc(COc2ccc(Cl)cc2)[nH][nH]1 [CMB-086902-2] |  | 117 |  | 6.16 | 6.10 |  |
| O=c1cc(COc2ccc(Cl)cc2)[nH][nH]1 [CMB-086902-3] |  | 120 |  | 5.46 | 6.11 |  |
| CCc1ccc(S(=O)(=O)Cc2cc(=O)[nH][nH]2)cc1 [CMB-087210-1] | 6.00 | 101 | 6.05 |  |  |  |
| CC(C)c1ccc(S(=O)(=O)Cc2cc(=O)[nH][nH]2)cc1 [CMB-087211-1] | 6.12 | 103 | 6.17 |  |  |  |
| CCCCc1ccc(S(=O)(=O)Cc2cc(=O)[nH][nH]2)cc1 [CMB-087212-1] | 6.00 | 93 | 6.05 |  |  |  |
| Cc1cc(S(=O)(=O)Cc2cc(=O)[nH][nH]2)c(C)cc1Cl [CMB-087213-1] | 5.64 | 116 | 5.83 |  |  |  |
| CCc1cccc(OCc2cc(=O)[nH][nH]2)c1 [CMB-087214-1] | 5.95 | 125 | 6.14 |  |  |  |
| CC(C)(C)c1cccc(OCc2cc(=O)[nH][nH]2)c1 [CMB-087215-1] | 5.97 | 141 | 6.06 |  |  |  |
| O=c1cc(COc2cc(Cl)cc(Cl)c2)[nH][nH]1 [CMB-087229-1] |  | 129 |  | 7.30 | 7.17 |  |
| O=c1cc(COc2cc(Cl)cc(Cl)c2)[nH][nH]1 [CMB-087229-5] |  | 123 |  | 6.26 | 6.51 |  |
| O=c1cc(CS(=O)(=O)c2cc(Cl)cc(Cl)c2)[nH][nH]1 [CMB-087235-1] | 6.44 | 130 | 6.12 |  |  |  |

| SMILES | pEC50 [1] | Corresponding % viability [%] | pEC50 [2] | pEC50 [3] | pEC50 [4] | activity in the cytotoxicity protection assay, in words |
| --- | --- | --- | --- | --- | --- | --- |
| O=c1cc(CS(=O)(=O)c2cc(Cl)cc(Cl)c2)[nH][nH]1 [CMB-087235-2] |  | 132 |  | 6.17 | 5.85 |  |
| CCc1ccc(OCc2cc(=O)[nH][nH]2)cc1 [CMB-087241-1] | 5.48 | 88 | 5.71 |  |  |  |
| O=c1cc(COc2ccc(Cl)c(Cl)c2)[nH][nH]1 [CMB-087242-1] | 6.89 | 136 | 6.24 |  |  |  |
| O=c1cc(COc2cc(C(F)(F)F)cc(C(F)(F)F)c2)[nH][nH]1 [CMB-087260-1] | 6.89 | 120 | 6.24 |  |  |  |
| Cn1[nH]c(COc2cc(Cl)cc(C(F)(F)F)c2)cc1=O [CMB-087264-1] | 5.18 | 109 | 5.29 |  |  |  |
| Cn1[nH]c(COc2ccc(Cl)cc2)cc1=O [CMB-087362-1] | 5.12 | 107 | 5.23 |  |  |  |
| Cn1c(COc2cc(Cl)cc(Cl)c2)cc(=O)n1C [CMB-087363-1] | < 4.49 |  |  |  |  |  |
| O=c1cc(COc2cc(F)cc(F)c2)[nH][nH]1 [CMB-087627-1] | 5.49 | 125 | 5.97 |  |  |  |
| O=c1cc(COc2cc(Br)cc(Br)c2)[nH][nH]1 [CMB-087628-1] | 5.81 | 125 | 6.29 |  |  |  |
| O=c1cc(COc2cccc(Br)c2)[nH][nH]1 [CMB-087642-1] | 5.51 | 144 | 5.99 |  |  |  |
| O=c1cc(COc2cccc(-c3ccccc3)c2)[nH][nH]1 [CMB-087643-1] | 5.07 | 96 | 5.55 |  |  |  |
| O=c1cc(COc2cc(-c3ccccc3)cc(-c3ccccc3)c2)[nH][nH]1 [CMB-087644-1] | 4.96 | 68 | 5.43 |  |  |  |
| O=c1cc(CN(c2cc(Cl)cc(Cl)c2)S(=O)(=O)c2ccccc2)[nH][nH]1 [CMB-087645-1] | 5.04 | 111 | 5.84 |  |  |  |
| O=c1cc(CNc2cc(Cl)cc(Cl)c2)[nH][nH]1 [CMB-087650-1] | 5.68 | 128 | 6.48 |  |  |  |
| CN(Cc1cc(=O)n(Cc2ccccc2)[nH]1)c1cc(Cl)cc(Cl)c1 [Compound 29, 2-Benzyl-5-(((3,5-dichlorophenyl)(methyl)amino)methyl)-1H-pyrazol-3(2H)-one] |  |  |  |  |  | comparable in activity to parent compound 3 |
| CN(Cc1cc(=O)n(C)[nH]1)c1cc(Cl)cc(Cl)c1 [Compound 30, 5-(((3,5-Dichlorophenyl)(methyl)amino)methyl)-2-methyl-1H-pyrazol-3(2H)-one] |  |  |  |  |  | comparable in activity to parent compound 3 |
| CN(Cc1cc(=O)[nH]n1C)c1cc(Cl)cc(Cl)c1 [Compound 31, 5-(((3,5-Dichlorophenyl)(methyl)amino)methyl)-1-methyl-1H-pyrazol-3(2H)-one] |  |  |  |  |  | devoid of activity |
| Cc1c(CN(C)c2cc(Cl)cc(Cl)c2)n(C)n(C)c1=O [Compound 32, 5-(((3,5-Dichlorophenyl)(methyl)amino)methyl)-1,2,4-trimethyl-1H-pyrazol-3(2H)-one] |  |  |  |  |  | devoid of activity |
